Data as given in patent publication US6472141B2, “Kinase assays using polycations” (Caliper Technologies Corp., priority 1999, dated 2002).
{Fl-O} = fluorescein attached through an O linker; {Fluorescein} = fluorescein label

How the values were obtained:
Format in all cases: binding
[1] = system: DNA target 182; assay: PNA/DNA hybridization detected by fluorescence polarization, non-complementary target
Excerpt: (§1) A fluorescein-labeled peptide nucleic acid molecule 202 was used in hybridization experiments with the DNA targets 192 and 182. PNAs are generally commercially available from the Applied Biosystems Division of the Perkin-Elmer Corporation (Foster City, Calif.). The sequence of these molecules is illustrated below. In the case of the PNA molecule, the given sequence illustrates the analogous sequence of a DNA molecule. The sequences of the three molecules are as follows:
(§2) DNA sequence 192 contains 13 bases (shown in bold) that are fully complementary to the PNA probe 202, whereas 182 is a non-complementary oligonucleotide.
(§3) A solution containing 1 μM of PNA 202 in 50 mM HEPES pH 7.5 was mixed with either 5 μM of 192 or 5 μM of 182. The mixtures were left at room temperature for about 10 min. and then placed in the cuvette of a fluorimeter equipped to measure fluorescence polarization. The measurements were carried out using 490 nm for excitation and 520 nm for detection of fluorescence emission. The fluorescence polarization values were recorded first in the absence and then in the presence of poly-L-Lysine hydrobromide, having a molecular weight of approximately 70-100 kD (Sigma Chemicals). The poly-L-Lysine was added from a stock solution in water (approx. 440 μM). The final concentrations of the poly Lysine were 4.4 and 8.8 μM.

[2] = system: DNA target 192; assay: PNA/DNA hybridization detected by fluorescence polarization, complementary target
Excerpt: as §1, §2, §3

[3] = system: DNA 244; assay: Single nucleotide substitution detection by fluorescence polarization of PNA probe; settings: 250 nM probe, about 3 μM poly-L-Lysine, 50 mM HEPES pH 7.5, 100 mM NaCl
Excerpt: The assay methods were employed to detect differential hybridization of a nucleic acid probe to a perfectly complementary target sequence and a target sequence incorporating a single base variation, e.g., a single nucleotide polymorphism (SNP). In particular, a fluoresceinated PNA probe having a sequence complementary to a subsequence of a target sequence was used to probe the target including the subsequence and a target in which an interior base of the subsequence was substituted for a different base.
The 5′ to 3′ sequences of the PNA probe (PNA 7637)(SEQ ID NO:4), the target DNA sequence (DNA 244) (SEQ. ID NO.5) and single base mismatch target DNA sequence (DNA 245) (SEQ. ID NO.6) were as follows:
The PNA probe 7637 was used at a final concentration of 250 nM, in a reaction volume of 400 μl. The buffer used was 50 mM HEPES pH 7.5, 100 mM NaCl. The solution also contained poly-L-Lysine at about 3 μM. One μl aliquots of the DNA targets 244 and 245 were added iteratively to the PNA solution and the fluorescence polarization (excitation 490, emission 520 nm) was recorded after the addition of each aliquot. The data from this experiment is illustrated in FIG. 22. […] As can also be seen, hybridization plateaued at approximately a […] of target sequence in the perfectly complementary example.

Substance | polarization value ([1]; 1 μM 202 with 5 μM non-complementary 182, without poly-L-Lysine) [mP] | polarization value ([1]; 202 with non-complementary 182, in the presence of poly-L-Lysine) [mnP] | polarization value ([2]; 202 hybrid with complementary 192, in the absence of poly-L-Lysine) | polarization value ([2]; 202 hybrid with complementary 192, in the presence of poly-L-Lysine) [mP] | fluorescence polarization, perfectly complementary target vs single base mismatch target (DNA 245) [3]
5′Fl-O-GTCAAATACTCCA (all peptide nucleic acid (PNA), 5' {Fl-O}) [compound 202, ID NO.1] | 86 | 140 | about 100 mP | 229 | 
Fluorescein-CCTGTAGCA (all peptide nucleic acid (PNA), 5' {Fluorescein}) [PNA probe 7637] |  |  |  |  | substantially higher levels of fluorescence polarization
